The IC50 is the concentration that gives 50% inhibition. Low values mean higher potency, high ones lower potency. The term efflux ratio denotes a quotient of directional permeabilities that is used to spot active efflux.

In one data set the target is T1, H3 receptor (Rattus norvegicus, UniProt Q9QYN8).
T1 construct: The frontal cortex dissected from rats was homogenized; from tissue; host or cells: rat frontal cortex membrane fraction
In words: Rat H3 receptor binding test (N-α-methyl[3H]histamine, frontal cortex membrane fraction). The conditions noted are these: N-α-methyl[3H]histamine 0.75 nM, room temperature, an hour. As for the experimental part: (Test 1: Rat H3 Receptor Binding Test)
The frontal cortex dissected from rats was homogenized with a Teflon (registered trademark) homogenizer in a 50 mM Tris-HCl buffer solution (pH 7.4) containing a protease inhibitor (Complete EDTA-free; Roche Diagnostics) and 5 mM EDTA. The homogenate was centrifuged at 48,000×g for 15 minutes. The supernatant was removed and the pellet was suspended in a 50 mM Tris-HCl buffer solution (pH 7.4) containing 5 mM EDTA and centrifuged at 48,000×g for 15 minutes. The supernatant was removed and the pellet was suspended in a 50 mM Tris-HCl buffer solution (pH 7.4) containing 5 mM EDTA to give a membrane fraction. The membrane fraction (the protein content in the final reaction mixture: 75 μg), N-α-methyl[^3H]histamine (PerkinElmer; final concentration: 0.75 nM) and a test drug were mixed and subjected to reaction at room temperature for an hour. After the end of the reaction, the reaction mixture was suction filtered through a 96-well GF/C filter plate pretreated with 0.3% polyethyleneimine; the filters were then washed five times with a 50 mM Tris-HCl buffer solution (pH 7.4) containing 5 mM EDTA. After the washing, the filters were dried and a scintillator was added to measure the residual radioactivity on the filter with TopCount (PerkinElmer).
The residual radioactivity in the presence of 10 μM thioperamide was taken as indicative of nonspecific binding and the difference from the residual radioactivity in the absence of thioperamide was taken as indicative of specific binding. Each of the test drugs was dissolved and diluted in DMSO at varying concentrations to plot a dose-response curve from the corresponding residual radioactivities; the concentration of test drug that inhibited the specific binding by 50% (IC50) was determined from this curve.

Data set [1] is described as follows: Rat in vivo pharmacokinetic study (distribution among plasma, brain and cerebrospinal fluid). The following applies: SD rats, single oral administration, 3 mg/kg, an hour after the administration. As for the experimental part: (Test 3: Rat in vivo pharmacokinetic study)
SD rats were given a single oral administration of Compound No. 8, 19 or 22 at a dose of 3 mg/kg and an hour after the administration, the compound's distribution among the plasma, brain, and cerebrospinal fluid was checked. Quantification was effected by a high-performance liquid chromatography/tandem mass spectrometer API 4000 (LC-MS/MS; AB Sciex).

The target of data set [2] is T2, P-glycoprotein (human MDR1) (Homo sapiens, UniProt P08183).
T2 construct: expressed in transfected cells; host or cells: LLC-GA5-COL300 (LLC-PK1 pig kidney epithelial cells expressing human MDR1)
Description: P-glycoprotein substrate recognition test (LLC-GA5-COL300 cells, transwell). The format is in vitro ADME. The following applies: LLC-PK1, ratio of membrane permeation coefficients for apical→basal and basal→apical directions. As for the experimental part:
(Test 4: P-Glycoprotein Substrate Recognition Test)
LLC-GA5-COL300 cells (Human MDR1 expressing system derived from pig kidney derived, cultured renal epithelial cell line LLC-PK1) were cultured on a transwell. Immediately before the test, the culture medium was replaced by Hank's balanced salt solution (HBSS) and the test was then conducted. A solution of an assay compound adjusted to a final concentration of 10 μM was added to the donor side of LLC-GA5-COL300 cells and after the passage of a predetermined period of time, a specified quantity of […] was sampled from the acceptor side. The concentration of the assay compound in the sample was measured by LC-MS/MS. From the amounts of the compound that accumulated and passed into the acceptor side, membrane permeation coefficients (×10^−6 cm/sec) were calculated for apical→basal and basal→apical directions and their relative ratio (efflux ratio) was determined to evaluate the P-glycoprotein substrate recognition.

[3] abbreviates: brain, read-out: intracerebral concentration.
Setting [4] is: brain/plasma, read-out: brain/plasma movement ratio.
Where [5] appears, read: cerebrospinal fluid, read-out: cerebrospinal fluid concentration.
Setting [6] is: cerebrospinal fluid/plasma, read-out: cerebrospinal fluid/plasma movement ratio.

Molecules are shown by their SMILES. Structures can show the parent of a compound that is named as a salt. Where two headings read alike, the source gives them in different places.

T1 sequence (Q9QYN8 whole entry): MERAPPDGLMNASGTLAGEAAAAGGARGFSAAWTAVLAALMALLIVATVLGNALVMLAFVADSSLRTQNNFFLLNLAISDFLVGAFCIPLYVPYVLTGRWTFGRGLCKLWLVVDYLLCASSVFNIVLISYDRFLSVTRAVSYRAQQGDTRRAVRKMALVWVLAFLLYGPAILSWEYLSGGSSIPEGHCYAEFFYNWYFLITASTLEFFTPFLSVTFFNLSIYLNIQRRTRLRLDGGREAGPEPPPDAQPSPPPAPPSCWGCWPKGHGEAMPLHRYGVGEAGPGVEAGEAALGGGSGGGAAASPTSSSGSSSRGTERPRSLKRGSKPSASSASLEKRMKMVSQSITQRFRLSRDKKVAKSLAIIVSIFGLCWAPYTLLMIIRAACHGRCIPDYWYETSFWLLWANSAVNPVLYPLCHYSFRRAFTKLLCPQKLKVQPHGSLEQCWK
T2 sequence (P08183 whole entry): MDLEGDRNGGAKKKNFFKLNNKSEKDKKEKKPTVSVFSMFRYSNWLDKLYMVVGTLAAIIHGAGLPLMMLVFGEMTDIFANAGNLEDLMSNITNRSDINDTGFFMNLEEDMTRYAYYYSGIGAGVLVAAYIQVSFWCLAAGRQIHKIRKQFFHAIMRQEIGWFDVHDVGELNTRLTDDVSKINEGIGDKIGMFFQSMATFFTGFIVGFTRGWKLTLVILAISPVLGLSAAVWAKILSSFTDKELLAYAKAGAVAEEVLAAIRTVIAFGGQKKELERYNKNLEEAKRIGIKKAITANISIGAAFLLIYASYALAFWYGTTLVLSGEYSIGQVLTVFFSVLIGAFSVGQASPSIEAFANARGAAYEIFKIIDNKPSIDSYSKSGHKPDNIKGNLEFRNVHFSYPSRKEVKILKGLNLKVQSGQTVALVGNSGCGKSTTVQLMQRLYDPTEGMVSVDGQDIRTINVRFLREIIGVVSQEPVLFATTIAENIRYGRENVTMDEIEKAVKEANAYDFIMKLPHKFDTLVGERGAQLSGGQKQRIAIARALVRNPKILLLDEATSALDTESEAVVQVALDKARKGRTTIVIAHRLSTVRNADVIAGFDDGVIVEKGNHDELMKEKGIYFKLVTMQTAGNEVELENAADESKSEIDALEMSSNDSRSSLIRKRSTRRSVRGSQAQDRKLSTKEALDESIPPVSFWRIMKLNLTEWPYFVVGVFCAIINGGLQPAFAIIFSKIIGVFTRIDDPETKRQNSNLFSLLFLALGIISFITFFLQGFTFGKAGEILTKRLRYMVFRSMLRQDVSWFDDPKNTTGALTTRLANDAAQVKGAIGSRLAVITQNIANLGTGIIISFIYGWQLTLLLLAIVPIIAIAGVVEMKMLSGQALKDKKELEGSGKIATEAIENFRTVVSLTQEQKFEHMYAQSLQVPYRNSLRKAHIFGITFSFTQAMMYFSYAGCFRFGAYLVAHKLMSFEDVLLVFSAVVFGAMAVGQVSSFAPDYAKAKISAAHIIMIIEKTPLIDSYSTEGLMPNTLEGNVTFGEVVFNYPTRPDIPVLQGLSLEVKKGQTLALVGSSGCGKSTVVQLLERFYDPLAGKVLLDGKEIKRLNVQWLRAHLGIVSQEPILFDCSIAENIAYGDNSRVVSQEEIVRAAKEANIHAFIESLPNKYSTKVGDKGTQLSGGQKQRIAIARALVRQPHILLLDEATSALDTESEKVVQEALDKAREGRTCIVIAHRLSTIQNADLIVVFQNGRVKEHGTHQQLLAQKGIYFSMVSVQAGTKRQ

On H3 receptor, `CNC(=O)c1cn(-c2ccc(OC3CCN(C4CCC4)CC3)cc2)nn1` [Compound No. 19, 1-{4-[(1-cyclobutylpiperidin-4-yl)oxy]phenyl}-N-methyl-1H-1,2,3-triazole-4-carboxamide] yielded an IC50 of 22 nM. Besides, the concentration at 1 h stood at 820 ng/g in data set [1] (setting [3]) and 134 ng/mL in data set [1] (setting [5]). In addition, the results for the Kp at 1 h in data set [1] (setting [4]) and in data set [1] (setting [6]) were 4.4 and 0.7, respectively. The efflux ratio at 10 μM in data set [2] stood at 0.7.

Turning to `OCc1cn(-c2ccc(OC3CCN(C4CCC4)CC3)cc2)nn1` [Compound No. 22, (1-{4-[(1-cyclobutylpiperidin-4-yl)oxy]phenyl}-1H-1,2,3-triazol-4-yl)methanol], on H3 receptor, the half-maximal inhibitory concentration (IC50) stood at 5.4 nM. For the same molecule, the concentration at 1 h in data set [1] (setting [3]) was 209 ng/g; in data set [1] (setting [5]), 67.6 ng/mL. In addition, the Kp at 1 h worked out at 1.5 in data set [1] (setting [4]) and 0.5 in data set [1] (setting [6]). Besides, the efflux ratio at 10 μM in data set [2] came to 1.1. `CNC(=O)c1cn(-c2ccc(OC3CCN(C(C)(C)C)CC3)cc2)nn1` [Compound No. 30, 1-{4-[(1-tert-butylpiperidin-4-yl)oxy]phenyl}-N-methyl-1H-1,2,3-triazole-4-carboxamide]: on H3 receptor, the half-inhibitory concentration (IC50) was found to be 126 nM. On H3 receptor, `CC(C)(C)N1CCC(Oc2ccc(-n3cc(C(N)=O)nn3)cc2)CC1` [Compound No. 31, 1-{4-[(1-tert-butylpiperidin-4-yl)oxy]phenyl}-1H−1,2,3-triazole-4-carboxamide] displayed an IC50 of 122 nM. The IC50 values of the last two molecules are within 1.5-fold of each other.

At H3 receptor, `CC(C)(C)N1CCC(Oc2ccc(-n3cc(C#N)nn3)cc2)CC1` [Compound No. 32, 1-{4-[(1-tert-butylpiperidin-4-yl)oxy]phenyl}-1H-1,2,3-triazole-4-carbonitrile] yielded an IC50 of 67 nM. Against the preceding molecule, the IC50 is about 1.8-fold lower. Molecule `CCOC(=O)c1ncn(-c2ccc(OC3CCN(C4CCC4)CC3)cc2)n1` [Compound No. 33, ethyl 1-{4-[(1-cyclobutylpiperidin-4-yl)oxy]phenyl}-1H-1,2,4-triazole-3-carboxylate] gave a concentration for half-maximal inhibition (IC50) on H3 receptor of 4.5 nM.

On H3 receptor, `O=C(c1ncn(-c2ccc(OC3CCN(C4CCC4)CC3)cc2)n1)N1CCCC1` [Compound No. 34, (1-{4-[(1-cyclobutylpiperidin-4-yl)oxy]phenyl}-1H-1,2,4-triazol-3-yl)(pyrrolidin-1-yl)methanone] registered a half-inhibitory concentration (IC50) of 1.3 nM. This IC50 is about 3.5-fold lower than that of the molecule before.

On to `O=C(c1ncn(-c2ccc(OC3CCN(C4CCC4)CC3)cc2)n1)N1CCC1` [Compound No. 35, azetidin-1-yl(1-{4-[(1-cyclobutylpiperidin-4-yl)oxy]phenyl}-1H-1,2,4-triazol-3-yl)methanone], for which the half-maximal inhibitory concentration (IC50) on H3 receptor worked out at 0.5 nM. Still for that read-out and setting: to `O=C(c1ncn(-c2ccc(OC3CCN(C4CCC4)CC3)cc2)n1)N1CCCCC1` [Compound No. 36, (1-{4-[(1-cyclobutylpiperidin-4-yl)oxy]phenyl}-1H-1,2,4-triazol-3-yl)(piperidin-1-yl)methanone] belongs 10 nM.

On H3 receptor, `CC(C)(C)NC(=O)c1ncn(-c2ccc(OC3CCN(C4CCC4)CC3)cc2)n1` [Compound No. 37, N-tert-butyl-1-{4-[(1-cyclobutylpiperidin-4-yl)oxy]phenyl}-1H-1,2,4-triazole-3-carboxamide] displayed a concentration for half-maximal inhibition (IC50) of 7.3 nM. Consider `O=C(O)c1ncn(-c2ccc(OC3CCN(C4CCC4)CC3)cc2)n1` [Compound No. 38, 1-{4-[(1-cyclobutylpiperidin-4-yl)oxy]phenyl}-1H-1,2,4-triazole-3-carboxylic acid hydrochloride], for which, on H3 receptor, the IC50 worked out at 158 nM. As for `NC(=O)c1ncn(-c2ccc(OC3CCN(C4CCC4)CC3)cc2)n1` [Compound No. 39, 1-{4-[(1-cyclobutylpiperidin-4-yl)oxy]phenyl}-1H-1,2,4-triazole-3-carboxamide], the concentration for half-maximal inhibition (IC50) on H3 receptor was 11 nM. In turn, `CC(=O)c1ncn(-c2ccc(OC3CCN(C4CCC4)CC3)cc2)n1` [Compound No. 40, 1-(1-{4-[(1-cyclobutylpiperidin-4-yl)oxy]phenyl}-1H-1,2,4-triazol-3-yl)ethanone hydrochloride] had an IC50 at H3 receptor of 6.4 nM. Compared with the last molecule, the IC50 is about 1.7-fold lower. In turn, `N#Cc1ncn(-c2ccc(OC3CCN(C4CCC4)CC3)cc2)n1` [Compound No. 41, 1-{4-[(1-cyclobutylpiperidin-4-yl)oxy]phenyl}-1H-1,2,4-triazole-3-carbonitrile] displayed a concentration for half-maximal inhibition (IC50) at H3 receptor of 6.4 nM. For `CC(=O)c1cn(-c2ccc(OC3CCN(C4CCC4)CC3)cc2)nn1` [compound 5, 1-(1-[4-[(1-cyclobutylpiperidin-4-yl)oxy]phenyl}-1H-1,2,3-triazol-4-yl)ethanone], the half-inhibitory concentration (IC50) at H3 receptor turned out to be 7.7 nM.

In the case of `CC(C)(O)c1cn(-c2ccc(OC3CCN(C4CCC4)CC3)cc2)nn1` [compound 6, 2-(1-{4-[(1-cyclobutylpiperidin-4-yl)oxy]phenyl}-1H-1,2,3-triazol-4-yl)propan-2-ol], the 50% inhibitory concentration (IC50) on H3 receptor came out at 12 nM. This IC50 lies about 1.6-fold higher than the previous one. As for `CC(C)(C)c1cn(-c2ccc(OC3CCN(C4CCC4)CC3)cc2)nn1` [compound 7, 4-[4-(4-tert-butyl-1H-1,2,3-triazol-1-yl)phenoxy]-1-cyclobutylpiperidine], at H3 receptor, the IC50 was determined as 4.9 nM. This IC50 lies about 2.4-fold lower than the previous one. On to `Cc1c(C(=O)N2CCCC2)nnn1-c1ccc(OC2CCN(C3CCC3)CC2)cc1` [compound 9, (1-{4-[(1-cyclobutylpiperidin-4-yl)oxy]phenyl}-5-methyl-1H-1,2,3-triazol-4-yl)(pyrrolidin-1-yl)methanone], for which the IC50 on H3 receptor was found to be 24 nM. On H3 receptor, `Cc1c(C(=O)N2CCC2)nnn1-c1ccc(OC2CCN(C3CCC3)CC2)cc1` [compound 10, azetidin-1-yl(1-{4-[(1-cyclobutylpiperidin-4-yl)oxy]phenyl}-5-methyl-1H-1,2,3-triazol-4-yl)methanone] registered an IC50 of 37 nM.

On H3 receptor, `CNC(=O)c1nnn(-c2ccc(OC3CCN(C4CCC4)CC3)cc2)c1C` [compound 11, 1-{4-[(1-cyclobutylpiperidin-4-yl)oxy]phenyl}-N,5-dimethyl-1H-1,2,3-triazole-4-carboxamide] yielded a concentration for half-maximal inhibition (IC50) of 19 nM. In turn, `O=C(Cc1cn(-c2ccc(OC3CCN(C4CCC4)CC3)cc2)nn1)N1CCCC1` [compound 12, 2-(1-[4-[(1-cyclobutylpiperidin-4-yl)oxy]phenyl}-1H-1,2,3-triazol-4-yl)-1-(pyrrolidin-1-yl)ethanone] showed an IC50 on H3 receptor of 16 nM. In turn, `O=C(Cc1cn(-c2ccc(OC3CCN(C4CCC4)CC3)cc2)nn1)N1CCC1` [compound 13, 1-(azetidin-1-yl)-2-(1-{4-[(1-cyclobutylpiperidin-4-yl)oxy]phenyl}-1H-1,2,3-triazol-4-yl)ethanone] came in with a concentration for half-maximal inhibition (IC50) at H3 receptor of 19 nM. This IC50 and that of the molecule before are within 1.5-fold of each other.

Take `CNC(=O)Cc1cn(-c2ccc(OC3CCN(C4CCC4)CC3)cc2)nn1` [compound 14, 2-(1-{4-[(1-cyclobutylpiperidin-4-yl)oxy]phenyl}-1H-1,2,3-triazol-4-yl)-N-methylacetamide]: the IC50 on H3 receptor stood at 32 nM.

`C[C@@H]1CCCN1CCCOc1ccc(-n2cc(C(=O)N3CCCC3)nn2)cc1` [compound 15, [1-(4-{3-[(2R)-2-methylpyrrolidin-1-yl]propoxy}phenyl)-1H-1,2,3-triazol-4-yl](pyrrolidin-1-yl)methanone] came in with an IC50 at H3 receptor of 8.9 nM. As for `C[C@@H]1CCCN1CCCOc1ccc(-n2cc(C(=O)N3CCC3)nn2)cc1` [compound 16, azetidin-1-yl[1-(4-{3-[(2R)-2-methylpyrrolidin-1-yl]propoxy}phenyl)-1H-1,2,3-triazol-4-yl]methanone], the half-maximal inhibitory concentration (IC50) on H3 receptor turned out to be 16 nM.

Source of the values: patent publication US20150045553A1, “PHENYLTRIAZOLE DERIVATIVE” (TOSHO PHARMACEUTICAL CO., LTD, priority 2011, published 2015).
